Reference: article PMC6207618, “The GbsR Family of Transcriptional Regulators: Functional Characterization of the OpuAR Repressor” (Frontiers in Microbiology, 2018)

Assays:
[1] = test system: opuAA-treA reporter activity; experiment: opuAA-treA reporter fusion TreA enzyme activity assay; format: cell-based, Bacillus subtilis; settings: strain STHB10 (OpuAR+), SMM with 1.2 M NaCl, 1 mM compatible solute
Source text: opuAAB.infantis′-treA reporter gene fusions were constructed using primers opuAR treA Frag1/2 rev and either opuAR treA Frag1/4 for (Supplementary Table S2) to amplify a 1940-bp DNA fragment from chromosomal DNA of B. infantis NRRL B-14911, including the predicted opuA promoter region and the coding region of opuAR, or primer opuAR treA Frag2 for, to generate a fragment lacking the opuAR gene. PCR products, which had been cut with BamHI and SmaI, were cloned into the vector pJMB1 ([Hoffmann et al., 2013]). This vector carries a promoterless treA gene, whose gene product [phospho-α-(1,1)-glucosidase] can be assayed and photometrically quantitated with the chromogenic substrate α-PNPG ([Gotsche and Dahl, 1995]). The plasmids resulting for the construction of the treA transcriptional reporter gene fusions were named pSTH33 (opuAR^+/opuAAB.i-treA) and pSTH34 (opuAR^-/opuAAB.i-treA) (Supplementary Table S3). All treA reporter gene fusions were stably integrated as a single copy into the chromosome of various B. subtilis strains at the amyE gene; all of these strains carry a gene disruption mutation of the native chromosomal treA gene of B. subtilis to allow the assignment of the measured TreA enzyme activity to the reporter gene constructs (Supplementary Table S1).
Aliquots (1.5 ml) from cultures of B. subtilis strains carrying chromosomal opuAAB.i′-treA reporter operon gene fusions (Supplementary Table S1) were used to monitor the expression levels by assaying the TreA reporter enzyme activity as described previously using the chromogenic substrate α-PNPG ([Gotsche and Dahl, 1995]). The TreA-specific activity is expressed in units per milligram of protein. Protein concentrations were estimated from the optical density of the cell culture harboring the treA reporter operon gene fusion ([Miller, 1972]).
FIGURE 6 Influence of the B. subtilis GbsR-like regulators on the expression of opuA from B. infantis and its transcriptional response to the presence of compatible solutes. (A) Genetic structure of the opuAA-treA transcriptional reporter fusions. (B) The opuAA-treA reporter gene fusions, either including or lacking the B. infantis opuAR gene, were integrated into the chromosome of the B. subtilis strain STHB05; it carries gene disruption mutations of all three GbsR-like regulators, resulting in strains STHB10 (OpuAR^+) and STHB11 (OpuAR^-). […] The opuAA-treA reporter strains were grown in SMM to early exponential growth phase (OD578 1–1.5) and then assayed for TreA reporter enzyme activity. The shown data represent four independent biological replicates and each culture was assayed twice. (C) Strain STHB10 (opuAR^+/opuAA-treA) was grown in SMM with increasing NaCl concentrations until each of these cultures reached mid-exponential growth phase (OD578 of about 1.5) and were then harvested for TreA reporter enzyme activity assays. The given data are the means and standard deviations of four independent biological replicates and each culture was assayed twice. (D) Expression of the opuAA-treA reporter gene construct in response to extracellular provided compatible solutes. The opuAA-treA reporter fusion strains STHB10 (OpuAR^+) and STHB11 (OpuAR^-) were cultivated in SMM containing 1.2 M NaCl either in the absence or presence of 1 mM of the indicated compatible solutes. The opuAA-treA reporter fusion strains were grown to early exponential growth phase (OD578 1–1.5) and then assayed for TreA reporter enzyme activity. The given data are the means and standard deviations of four independent biological replicates and each culture was assayed twice.
To identify possible effector molecules for the B. infantis OpuAR protein, we conducted a series of in vivo experiments in which we assessed any possible inducing effects of compatible solutes on opuAA-treA transcriptional activity in an OpuAR-dependent fashion (Figure 6D).

[2] = molecular target: B. infantis OpuAR protein (OpuAR-Strep-tag II recombinant protein) (Bacillus infantis NRRL B-14911); experiment: SEC; HiLoad 16/600 Superdex 200 pg; 2 ml of affinity-purified OpuAR (1.5 mg/ml) loaded straight after purification; 100 mM KPP (pH 8), 300 mM NaCl; column standardised with thyroglobulin, albumin, ovalbumin and cytochrome C

Row | Compound | Induction of opuAA-treA reporter activity (OpuAR-dependent) [1] | stoichiometry N [2]
1 | C[N+](C)(C)CCOS(=O)(=O)[O-] [choline-O-sulfate] | did not serve as inducers | –
2 | CC1=NCC[C@@H](C(=O)O)N1 [ectoine] | did not serve as inducers | –
3 | B. infantis OpuAR protein (OpuAR-Strep-tag II recombinant protein) (natural protein) | – | 2
